From US8404738B2 (Hoffmann-La Roche Inc., priority 2011, dated 2013) come the findings set out here.

One experiment deals with RPMI-8226. In words: WST anti-proliferative assay, multiple myeloma cell line RPMI-8226. In kind it is cell-based. The settings on record: Homo sapiens, RPMI8226 cells, 72 hours, CCK-8. The text has this:
(§1) WST Anti-Proliferative Assay and Assessment of Growth Inhibitory of Novel Compounds in Multiple Myeloma Cell Lines.

Experiment [1] relates to p21 promoter-luciferase construct. Nature of the experiment: p21 reporter gene induction (HeLa cells, p21 promoter-luciferase construct).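 On all read-outs here: transfected HeLa cells exposed to compound for 15 h, luciferase luminescence read from lysates, p21 promoter lacks p53 site, proxy for cellular HDAC1/2/3 inhibition.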 Particulars: for p21 RP3: relative gene level of p21 compared to MS275 at 3 μM; for p21 RP10: relative level of p21 compared to MS275 at 10 μM; for p21 RP30: relative level of p21 compared to MS275 at 30 μM.
Experimental: As a surrogate for in-cell HDAC1/2/3 inhibition, p21 induction was used as a counterscreen to evaluate the selectivity of the compounds in the present invention toward HDAC6 or HDAC8.
The novel compounds of the present invention were tested for their ability to induce p21 gene expression using a reporter gene assay involving HeLa cells transfected with a p21 promoter-luciferase construct. The p21 promoter contained the Sp1/Sp3 binding site for HDAC but not the upstream p53 binding site. Briefly, the day before transfection, HeLa cells were seeded at 11,000 cells/well in a 96-well culture plate and incubated at 37° C. in 5% CO2 overnight. A transfection media was prepared prior to transfection according to the following procedure: (1) 5 μl serum-free DMEM, 0.15 μl Fugene 6 reagent, 40 ng p21-luc, 10 ng GFP were mixed gently and incubated at rt for 30 minutes; (2), then 98 μl DMEM (with 10% FBS, 1% penicillin and streptomycin) was added to the DNA: Fugene 6 reagent complex and mixed gently. For transfection, the medium was removed and replaced with 100 μl/well transfection media which was prepared according to the procedure above. After incubating the cells for 24 hours at 37° C. in 5% CO2, fresh media and test compounds were added to the wells and the cells further incubated for 15 hours at 37° C. in 5% CO2. Cells were lysed by adding 80 μl/well of a cell culture lysis reagent (Promega). 50 μl of each lysate was taken for GFP detection using an excitation wavelength of 486 nm and detection at 527 nm. 100 μl luciferase assay reagent (Promega) was then added to every 20 μl cell lysate for luminometer detection.
The next experiment concerns the target T1, HDAC6 (Homo sapiens, UniProt Q9UBN7).
T1 construct: endogenous in cells; host or cells: A549 cells
T1 sequence (Q9UBN7 1-1215): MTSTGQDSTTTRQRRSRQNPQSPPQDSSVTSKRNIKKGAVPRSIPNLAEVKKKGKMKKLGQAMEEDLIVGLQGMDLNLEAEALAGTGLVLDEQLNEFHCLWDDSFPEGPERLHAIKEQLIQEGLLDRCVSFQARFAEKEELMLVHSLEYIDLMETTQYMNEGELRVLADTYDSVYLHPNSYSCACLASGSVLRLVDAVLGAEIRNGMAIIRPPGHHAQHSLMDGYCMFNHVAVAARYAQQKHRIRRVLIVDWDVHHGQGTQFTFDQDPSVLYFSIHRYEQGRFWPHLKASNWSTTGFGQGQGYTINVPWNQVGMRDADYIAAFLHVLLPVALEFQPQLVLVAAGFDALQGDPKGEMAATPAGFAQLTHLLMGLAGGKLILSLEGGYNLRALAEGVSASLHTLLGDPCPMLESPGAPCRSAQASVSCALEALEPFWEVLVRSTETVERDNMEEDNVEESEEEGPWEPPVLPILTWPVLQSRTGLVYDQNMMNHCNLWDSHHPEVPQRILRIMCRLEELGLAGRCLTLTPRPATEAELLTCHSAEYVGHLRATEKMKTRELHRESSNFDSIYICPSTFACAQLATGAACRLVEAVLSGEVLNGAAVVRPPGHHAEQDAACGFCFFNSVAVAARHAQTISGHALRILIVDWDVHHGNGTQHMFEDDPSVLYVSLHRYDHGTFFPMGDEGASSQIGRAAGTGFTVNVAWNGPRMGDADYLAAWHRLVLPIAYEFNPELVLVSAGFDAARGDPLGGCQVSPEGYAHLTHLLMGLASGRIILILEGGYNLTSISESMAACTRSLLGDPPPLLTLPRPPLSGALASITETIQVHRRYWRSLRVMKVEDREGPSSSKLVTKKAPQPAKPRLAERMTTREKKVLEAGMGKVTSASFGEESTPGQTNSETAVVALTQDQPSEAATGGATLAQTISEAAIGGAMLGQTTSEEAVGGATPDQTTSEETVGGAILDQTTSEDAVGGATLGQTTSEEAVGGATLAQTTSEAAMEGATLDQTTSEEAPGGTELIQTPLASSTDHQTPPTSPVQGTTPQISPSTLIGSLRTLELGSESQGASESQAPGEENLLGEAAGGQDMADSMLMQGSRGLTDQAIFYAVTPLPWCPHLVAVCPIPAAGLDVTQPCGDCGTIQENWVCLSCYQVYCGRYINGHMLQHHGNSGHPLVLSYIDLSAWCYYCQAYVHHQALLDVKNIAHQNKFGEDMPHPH
Nature of the experiment: Tubulin acetylation cytoblot assay (A549 cells). In kind it is cell-based. The settings on record: 17-18 h incubation, tubulin acetylation as marker of HDAC6 inhibition, read-out: Tub-Ac EC50. In short, it runs like this:
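Cells were exposed to compound for 17-18 h, then fixed with formaldehyde and permeabilized with cold MeOH. They were probed for 4 h at 4° C with anti-acetylated tubulin plus HRP anti-mouse IgG (each 1:750), and read by ECL luminescence. EC50 values came from curves normalized to top and bottom controls.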

A further experiment has as its system OPM-2. Nature of the experiment: WST anti-proliferative assay, multiple myeloma cell line OPM-2. In kind it is cell-based. Particulars: Homo sapiens; OPM-2 cells, 72 hours, CCK-8.
Excerpt: as §1

The next experiment deals with T2, recombinant human HDAC8 (Homo sapiens, UniProt Q9BY41).
T2 construct: made in house; host or cells: insect cells
T2 sequence (Q9BY41 1-377): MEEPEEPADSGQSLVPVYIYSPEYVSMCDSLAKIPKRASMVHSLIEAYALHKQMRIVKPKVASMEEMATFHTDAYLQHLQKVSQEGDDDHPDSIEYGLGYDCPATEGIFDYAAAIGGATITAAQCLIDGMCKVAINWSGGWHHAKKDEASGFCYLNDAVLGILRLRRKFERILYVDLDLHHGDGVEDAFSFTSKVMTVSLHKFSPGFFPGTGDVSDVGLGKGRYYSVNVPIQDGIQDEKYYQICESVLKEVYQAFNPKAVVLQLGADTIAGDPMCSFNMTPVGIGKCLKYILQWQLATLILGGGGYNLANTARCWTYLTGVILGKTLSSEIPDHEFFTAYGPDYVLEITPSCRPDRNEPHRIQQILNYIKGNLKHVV
In words: HDAC8 inhibition: recombinant HDAC8 fluorometric assay. In kind it is biochemical. Particulars: recombinant human HDAC8, substrate Ac-Arg-His-Lys-Lys(ε-acetyl)-AMC; read-out: HDAC8 IC50. In short, it runs like this:
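Recombinant human HDAC8 from insect cells was preincubated with compound for 15 min at rt, then given Ac-Arg-His-Lys-Lys(ε-acetyl)-AMC substrate for 30 min at rt. IC50 came from normalized percent inhibition with curve fitting.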

`CC1(Nc2ccc(C(=O)NO)cc2)CCN(c2ccc(Cl)cc2)C1=O` (stereo not shown) [Example 60, 4-[1-(4-Chloro-phenyl)-3-methyl-2-oxo-pyrrolidin-3-ylamino]-N-hydroxy-benzamide] registered a half-maximal inhibitory concentration (IC50) in the experiment on RPMI-8226 of 8.11 µM. Also, in experiment [1], the “p21 RP3” value amounted to 0.80, the “p21 RP10” value was determined as 0.16 and the “p21 RP30” value was determined as 0.07. Moreover, the EC50 at HDAC6 is 530 nM. Half-maximal inhibition in the experiment with OPM-2 (IC50) was put at 3.94 µM. The IC50 on recombinant human HDAC8 was 920 nM.
Consider `O=C(NO)c1ccc(NC2CC(=O)N(c3ccc(F)cc3)C2)cc1` (stereo not shown) [Example 70, 4-[1-(4-Fluoro-phenyl)-5-oxo-pyrrolidin-3-ylamino]-N-hydroxy-benzamide], for which the half-maximal inhibitory concentration (IC50) came out at 10.7 µM with RPMI-8226, 6.47 µM with OPM-2 and 200 nM on recombinant human HDAC8. In addition, the “p21 RP3” value in experiment [1] was −0.07. Moreover, the “p21 RP10” value in experiment [1] was 0.00. Besides, the “p21 RP30” value in experiment [1] is given as 0.02. The 50% effective concentration (EC50) at HDAC6 was found to be 1710 nM.
Regarding `O=C(NO)c1ccc(NC2CC(=O)N(c3ccccc3Cl)C2)cc1` (stereo not shown) [Example 71, 4-[1-(2-Chloro-phenyl)-5-oxo-pyrrolidin-3-ylamino]-N-hydroxy-benzamide], the IC50 turned out to be 5.62 µM in the experiment on RPMI-8226, 3.46 µM with OPM-2 and 1010 nM at recombinant human HDAC8. Further, the “p21 RP3” value in experiment [1] is 0.13. Moreover, the “p21 RP10” value in experiment [1] worked out at 0.06. Also, the “p21 RP30” value in experiment [1] is 0.04. Also, on HDAC6, the EC50 is 810 nM.
In the case of `O=C(NO)c1ccc(NC2CC(=O)N(c3ccc(Cl)cc3)C2)cc1` (stereo not shown) [Example 73, 4-[1-(4-Chloro-phenyl)-5-oxo-pyrrolidin-3-ylamino]-N-hydroxy-benzamide], the 50% inhibitory concentration (IC50) in the experiment on RPMI-8226 came to 6.49 µM; in the experiment with OPM-2, 4.95 µM; at recombinant human HDAC8, 1040 nM. The “p21 RP3” value in experiment [1] amounted to 0.12. Further, the “p21 RP10” value in experiment [1] was 0.04. Also, in experiment [1], the “p21 RP30” value came out at 0.04. The concentration giving a half-maximal response (EC50) at HDAC6 was 1470 nM.

In general, IC50 refers to the point on the concentration scale where inhibition reaches its midpoint. As a reminder, the EC50 is the midpoint of the concentration-response curve.
